This is an account of results in ChEMBL document CHEMBL4483862, “Open-source discovery of chemical leads for next-generation chemoprotective antimalarials” (2018).

This assay deals with Plasmodium berghei. The experiment in a line: Luciferase/luciferin-expressing antifolate-resistant parasites were used to infect a culture of HepG2 cells that were pre-incubated with compounds. Infected hepatocytes emit light due to the luciferase reaction. Assay results are presented as the percent inhibition of light emission compared to control. […]. As to conditions: sporozoite; for IC90: read-out: LUCIFERASE INFECTION ASSAY - IC90. It counts as functional.

[1] abbreviates: PBLUC_HILL_SLOPE 3.93, PBLUC_R_SQUARED 0.959, read-out: LUCIFERASE INFECTION ASSAY - IC50.

For `Cc1nn(Cc2ccccc2)c(Cl)c1/C=C/C(=O)OC(C)C(=O)N1CCCC1` (centres undefined), the IC90 worked out at 4.19 µM. For the same molecule, the IC50 (PBLUC_HILL_SLOPE 3.98, PBLUC_R_SQUARED 0.412, read-out: LUCIFERASE INFECTION ASSAY - IC50) came out at 2.41 µM.

As to `O=C(Nc1ccc(Cl)cc1)/C(=C/c1ccc([N+](=O)[O-])cc1)c1nc2ccccc2s1`, the IC90 is over 10 µM. For the same molecule, the IC50 (PBLUC_HILL_SLOPE 3.91, PBLUC_R_SQUARED 0.341, read-out: LUCIFERASE INFECTION ASSAY - IC50) was found to be 7.67 µM.

Turning to `Cc1ccc(NC(=O)Nc2ccc(Cl)c(Cl)c2)nc1`, the IC90 is 9.58 µM. Besides, the IC50 (PBLUC_HILL_SLOPE 3.93, PBLUC_R_SQUARED 0.477, read-out: LUCIFERASE INFECTION ASSAY - IC50) came out at 5.48 µM.

Consider `COc1cc(OC)cc(-c2cnc3cnc(-c4cccc(OC(C)C)c4)cn23)c1`, for which the IC90 is over 8.47 µM. Moreover, the IC50 (PBLUC_HILL_SLOPE 3.99, PBLUC_R_SQUARED 0.348, read-out: LUCIFERASE INFECTION ASSAY - IC50) amounted to 6.48 µM.

`CC(C)(C)c1cc(C(=O)Nc2ccccc2)n(Cc2ccc(Cl)cc2Cl)n1`: the IC90 was over 8.2 µM. For the setting “PBLUC_HILL_SLOPE 3.9, PBLUC_R_SQUARED 0.166, read-out: LUCIFERASE INFECTION ASSAY - IC50”, the IC50 came to 5.99 µM.

On to `O=C1NCC(CSc2nc3cc(Cl)ccc3c(=O)n2C2CCCCC2)O1` (centres undefined), for which the IC90 is 7.92 µM. Moreover, the IC50 (PBLUC_HILL_SLOPE 3.9, PBLUC_R_SQUARED 0.536, read-out: LUCIFERASE INFECTION ASSAY - IC50) stood at 4.51 µM.

With `COc1ccc(-c2cnc3cnc(/C=C/c4ccccc4)cn23)cc1`, the IC90 came out at 2.11 µM. For the same molecule, under “PBLUC_HILL_SLOPE 3.95, PBLUC_R_SQUARED 0.779, read-out: LUCIFERASE INFECTION ASSAY - IC50”, the IC50 came to 1.21 µM.

Consider `COc1cc2c(c(OC)c1OC)Cc1cc(OC)c(OC)c(OC)c1C2`, for which the IC90 was 7.66 µM. Moreover, the IC50 (PBLUC_HILL_SLOPE 3.89, PBLUC_R_SQUARED 0.32, read-out: LUCIFERASE INFECTION ASSAY - IC50) is 4.36 µM.

`CCOc1ccc2c(c1)sc(=N)n2Cc1ccc(Cl)cc1`: the IC90 was over 10 µM. Also, the IC50 (PBLUC_HILL_SLOPE 3.98, PBLUC_R_SQUARED 0.233, read-out: LUCIFERASE INFECTION ASSAY - IC50) came out at 6.2 µM.

As for `Cc1cccc(N(C)c2ccnc3c(-c4ccc(C(=O)NC5CC5)cc4)cnn23)c1`, the IC90 amounted to 6.33 µM. Where the note is “PBLUC_HILL_SLOPE 3.89, PBLUC_R_SQUARED 0.384, read-out: LUCIFERASE INFECTION ASSAY - IC50”, the IC50 is 3.6 µM.

Take `COc1cccc(-c2cn3c(-c4ccccc4Cl)cnc3cn2)c1F`: the IC90 was determined as 6.25 µM. Where the note is “PBLUC_HILL_SLOPE 4, PBLUC_R_SQUARED 0.571, read-out: LUCIFERASE INFECTION ASSAY - IC50”, the IC50 was determined as 3.61 µM.

As for `CCn1c2ccccc2c2cc(NC(=O)COC(=O)CC3CCCC3)ccc21`, the IC90 stood at 9.1 µM. For the same molecule, the IC50 (PBLUC_HILL_SLOPE 3.89, PBLUC_R_SQUARED 0.506, read-out: LUCIFERASE INFECTION ASSAY - IC50) was determined as 5.17 µM.

Consider `COc1ccnc(N2CCN(C(c3ccccc3)c3ccccc3)CC2)c1C#N`, for which the IC90 is over 8.58 µM. Besides, the IC50 (PBLUC_HILL_SLOPE 3.87, PBLUC_R_SQUARED 0.686, read-out: LUCIFERASE INFECTION ASSAY - IC50) was determined as 5.89 µM.

In the case of `CCc1nn2c(NCc3ccccn3)cc(C)nc2c1-c1ccccc1`, the IC90 was over 9.61 µM. Besides, the IC50 (PBLUC_HILL_SLOPE 4, PBLUC_R_SQUARED 0.354, read-out: LUCIFERASE INFECTION ASSAY - IC50) was found to be 6.15 µM.

As for `CC(Oc1ccc2ccc(=O)oc2c1)C(=O)N1CCc2ccccc21` (centres undefined), the IC90 is 6.27 µM. Further, the half-maximal inhibitory concentration (IC50) (PBLUC_HILL_SLOPE 3.92, PBLUC_R_SQUARED 0.713, read-out: LUCIFERASE INFECTION ASSAY - IC50) came to 3.58 µM.

With `CC(C)(C)c1cc(NC(=O)Nc2ccc(C#N)cc2)n(-c2ccccc2)n1`, the IC90 came to 0.0487 µM. The IC50 under setting [1] is 0.0279 µM.

As for `Cc1cc(C)cc(NC(=S)NC2CCCC(C)C2C)c1` (centres undefined), the IC90 is 9.4 µM. Besides, the IC50 (PBLUC_HILL_SLOPE 3.85, PBLUC_R_SQUARED 0.565, read-out: LUCIFERASE INFECTION ASSAY - IC50) was 5.32 µM.

`FC(F)(F)c1cc(NCc2ccc(Cl)cc2)nc(-c2ccccn2)n1`: the IC90 is over 9.05 µM. Besides, the IC50 (PBLUC_HILL_SLOPE 3.87, PBLUC_R_SQUARED 0.118, read-out: LUCIFERASE INFECTION ASSAY - IC50) was 5.66 µM.

As to `Cc1cc(C)n(-c2ccc(NC(=O)C3(c4ccccc4)CC3)cn2)n1`, the IC90 stood at 0.834 µM. Besides, where the note is “PBLUC_HILL_SLOPE 3.93, PBLUC_R_SQUARED 0.515, read-out: LUCIFERASE INFECTION ASSAY - IC50”, the IC50 turned out to be 0.477 µM.

In the case of `CC(C)c1ccc(CN2CCN(C(=O)CNC(=O)c3ccc(Br)o3)CC2)cc1`, the IC90 was over 10 µM. The IC50 (PBLUC_HILL_SLOPE 3.89, PBLUC_R_SQUARED 0.276, read-out: LUCIFERASE INFECTION ASSAY - IC50) is 9.05 µM.

Regarding `O=C(Cn1cnc2c(cnn2-c2ccccc2[N+](=O)[O-])c1=O)Nc1ccc(OCc2ccccc2)cc1`, the IC90 was over 10 µM. The IC50 (PBLUC_HILL_SLOPE 3.88, PBLUC_R_SQUARED 0.658, read-out: LUCIFERASE INFECTION ASSAY - IC50) was 7.44 µM.

Turning to `O=C(CCc1ccc(O)cc1)NNC(=S)Nc1ccc(Cl)c(Cl)c1`, the IC90 is over 8.59 µM. For the same molecule, the IC50 (PBLUC_HILL_SLOPE 3.89, PBLUC_R_SQUARED 0.475, read-out: LUCIFERASE INFECTION ASSAY - IC50) is 5.88 µM.

On to `c1ccc(-c2cc(NCCCn3ccnc3)nc3ccccc23)cc1`, for which the IC90 was found to be 8.58 µM. Also, for the setting “PBLUC_HILL_SLOPE 4.01, PBLUC_R_SQUARED 0.225, read-out: LUCIFERASE INFECTION ASSAY - IC50”, the IC50 was found to be 4.96 µM.

For `O=C(Nc1nc(C23CC4CC(CC(C4)C2)C3)cs1)C1=COCCO1`, the IC90 is over 10 µM. In addition, the IC50 (PBLUC_HILL_SLOPE 3.95, PBLUC_R_SQUARED 0.0619, read-out: LUCIFERASE INFECTION ASSAY - IC50) is 7.07 µM.

With `Cc1cc(C)n(-c2nc(-c3ccccc3)cc(N3CCCCCC3)n2)n1`, the IC90 worked out at 7.45 µM. The IC50 (PBLUC_HILL_SLOPE 3.96, PBLUC_R_SQUARED 0.269, read-out: LUCIFERASE INFECTION ASSAY - IC50) is 4.28 µM.

On to `Cc1cc2ncc(-c3ccnc(SCc4cccc(Cl)c4)n3)c(C)n2n1`, for which the IC90 was 8.63 µM. Besides, the IC50 (PBLUC_HILL_SLOPE 3.9, PBLUC_R_SQUARED 0.625, read-out: LUCIFERASE INFECTION ASSAY - IC50) is 4.91 µM.

Consider `NC(=O)C(C(=O)/C=C/c1c(Cl)cccc1Cl)=C1SCS1`, for which the IC90 is over 10 µM. The IC50 (PBLUC_HILL_SLOPE 3.86, PBLUC_R_SQUARED 0.315, read-out: LUCIFERASE INFECTION ASSAY - IC50) is 6.18 µM.

For `CN(C)Cc1ccccc1NC(=O)Nc1ccc(Cl)cc1`, the IC90 came to 7.23 µM. The IC50 (PBLUC_HILL_SLOPE 3.91, PBLUC_R_SQUARED 0.658, read-out: LUCIFERASE INFECTION ASSAY - IC50) was determined as 4.13 µM.

As for `CC(Sc1nc(N)c2ccsc2n1)c1nc(-c2ccccc2)no1` (centres undefined), the IC90 is over 10 µM. Where the note is “PBLUC_HILL_SLOPE 3.96, PBLUC_R_SQUARED 0.141, read-out: LUCIFERASE INFECTION ASSAY - IC50”, the IC50 is over 10 µM.

On to `O=C(CN1C(=O)NC(Cc2ccccc2)(c2ccccc2)C1=O)N1CCc2ccccc2C1` (centres undefined), for which the concentration for an effect of 90% (IC90) was over 10 µM. In addition, the IC50 (PBLUC_HILL_SLOPE 3.92, PBLUC_R_SQUARED 0.472, read-out: LUCIFERASE INFECTION ASSAY - IC50) is 7.9 µM.

With `COc1ccc(-c2nc3ccc(NC(=O)Nc4ccc(F)c(Cl)c4)cn3n2)cc1`, the 90% effect concentration (IC90) was determined as 8.19 µM. For the same molecule, the IC50 (PBLUC_HILL_SLOPE 3.84, PBLUC_R_SQUARED 0.577, read-out: LUCIFERASE INFECTION ASSAY - IC50) came out at 4.62 µM.

Regarding `O=C(NCCSCc1ccccc1Cl)c1cccs1`, the IC90 was 8.99 µM. Moreover, the IC50 (PBLUC_HILL_SLOPE 3.91, PBLUC_R_SQUARED 0.447, read-out: LUCIFERASE INFECTION ASSAY - IC50) worked out at 5.12 µM.

Consider `O=C(CNc1ccc(C(F)(F)F)cc1Cl)Nc1cccc(C(=O)NC2CC2)c1`, for which the IC90 amounted to 7.38 µM. The IC50 (PBLUC_HILL_SLOPE 3.94, PBLUC_R_SQUARED 0.579, read-out: LUCIFERASE INFECTION ASSAY - IC50) was 4.23 µM.

As to `CCNC(=O)C(C)NC(=O)c1cc(-c2ccccc2)nc2c1cnn2Cc1ccccc1Cl` (centres undefined), the IC90 is 0.0487 µM. The IC50 under setting [1] came out at 0.0279 µM.

With `Cc1ccc(N(CC(=O)Nc2ccc(F)cc2F)C2=NC(=O)CS2)cc1`, the IC90 was determined as 9.47 µM. For the same molecule, the IC50 (PBLUC_HILL_SLOPE 3.93, PBLUC_R_SQUARED 0.513, read-out: LUCIFERASE INFECTION ASSAY - IC50) worked out at 5.41 µM.

With `N#Cc1ccc(-c2cnc3cnc(-c4cccc(Cl)c4)cn23)cc1`, the IC90 is over 9.98 µM. Besides, for the setting “PBLUC_HILL_SLOPE 4, PBLUC_R_SQUARED 0.258, read-out: LUCIFERASE INFECTION ASSAY - IC50”, the half-inhibitory concentration (IC50) is 8.15 µM.

Consider `O=C(NNC(=O)c1csnn1)c1ccc(C(F)(F)F)cc1`, for which the IC90 is 1.19 µM. Moreover, the IC50 (PBLUC_HILL_SLOPE 3.95, PBLUC_R_SQUARED 0.658, read-out: LUCIFERASE INFECTION ASSAY - IC50) turned out to be 0.684 µM.

As usually defined, the IC50 is the concentration that inhibits the measured activity by half. One may read the IC90 as the concentration at which the effect reaches the 90% level.
